Measurements as given in patent US20220185793A1, “COMPOUNDS FOR THE TREATMENT OF ONCOVIRUS INDUCED CANCER AND METHODS OF USE THEREOF” (Cellestia Biotech AG, priority 2019, published 2022).

Columns and labels:
[1] = tested on: EBV positive human lymphoma HG-3 cells; experiment: Alamar blue proliferation assay in HG-3 cells; format: cell-based; settings: 72 hours; for anti-proliferative effect on HG-3 cells (in words): Alamar blue, FIG. 1 and Table 1; for IC50: Homo sapiens, concentration range 0.01-10 μM, Alamar blue assay, read-out: Anti-proliferative IC50 values
Description: (§1) One million human EBV positive lymphoma cell lines HG3 and LCL070903 (Rosén et al., 2012) were cultured in RPMI1640 media supplemented with 10% FCS. […] Following treatment cells were harvested and washed with 1× PBS. Total RNA was extracted as described below.
(§2) Alamarblue® and PrestoBlue proliferation assays were performed to determine the growth kinetics of EBV inhibitor treated cells. Alamar blue® and PrestoBlue consists of a cell permeable substrate resazurin. In metabolically active and proliferating cells, resazurin is converted to resorufin due to an intrinsic reducing power of live cells and produces a red fluorescence. Therefore production of resorufin serves as an indicator of the viability of the cell population.
(§3) Proliferation assays were performed by seeding 5000 cells/well in a 96 well plate. […] Each concentration was tested in 4 replicates. To determine the growth kinetics, 10 μl of Alamar blue® or PrestoBlue (Invitrogen) was added to each well and incubated for 4 hours. Readout was taken using Tecan F500 (Tecan) multiplate reader or Varioskan LUX (ThermoFisher) multiplate reader.
In order to determine anti-cancer activity of compounds in oncoviral driven cells, an EBV infected human Chronic Lymphocytic Leukemia cell line HG-3 was used (Rosen et al., 2012). In brief, HG-3 cells were plated in a 96 well plate and treated with an increasing concentration of compounds.

LMP1 = experiment: EBV target gene downregulation (qPCR) in HG-3 cells: LMP1; format: cell-based; settings: Homo sapiens, mRNA by qPCR, Table 2
Description: (§4) One million human EBV positive lymphoma cell lines HG3 and LCL070903 (Rosén et al., 2012) were cultured in RPMI1640 media supplemented with 10% FCS. For RNA expression analysis cells were treated with compounds at 10 μM concentration and for proliferation assay cells were treated at a concentration range of 0.01-100 μM. Following treatment cells were harvested and washed with 1× PBS. Total RNA was extracted as described below.
(§5) Total RNA was extracted from cells using TRIzol® extraction kit (Invitrogen). Briefly, 1×10^6 cells were washed with ice-cold 1× PBS and lysed in 1 ml of TRIzol® solution for 5 minutes at room temperature to dissociate nucleoprotein complexes. Lysed cells were then treated with 200 μl of chloroform and shaked vigorously for 15-30 seconds and incubated at room temperature for 2-3 minutes. The samples were centrifuged at 14000 rpm using Eppendorf table top centrifuge for 10 minutes at 4° C. Following centrifugation, upper aqueous phase was transferred to new eppendorf tubes. To precipitate total RNA 500 μl of […] was added to the separated aqueous phase and incubated at room temperature for 10 minutes. A RNA pellet was obtained by centrifuging the samples at 4° C. for 10 minutes. RNA pellet obtained was washed with 1 ml ice cold 75% ethanol and spun down at 14000 rpm at 4° C. RNA pellet was dried off of excess of ethanol and resuspended in 40 IA DPEC water.
(§6) Total RNA extracted from the cell was used to synthesize cDNA by reverse transcription reaction. Reverse transcription was performed according to one of the two following protocols.
(§7) In first protocol, SuperScript™ RT (Invitrogen) was used for reverse transcription reaction. RNA concentration was measured using NanoDrop®ND-1000 spectrophotometer (Witec AG) and 500 ng of total RNA was mixed with a 10 mM mix of dNTPs and 100 ng of random primers. The reaction mix was incubated at 65° C. for 5 minutes and quickly incubated on ice for 1 minute. Following incubation on ice, 5× first strand buffer and 0.1M DTT were added and mix was incubated for 2 minutes at 25° C. To start the reverse transcription reaction, 200U of SuperScrip™ II RT was added to the reaction mix and incubated at 42° C. for 50 minutes. The reaction was stopped by incubating the reaction mix at 75° C. for 15 minutes.
(§8) In second protocol, reverse transcription was performed using PrimeScript RT Master Mix (Takara). RNA concentration was measured using NanoDrop®ND-1000 spectrophotometer (Witec AG) and 1 μg of total RNA was mixed with 4 μL 5X PrimeScript RT Master Mix in a total reaction volume of 20 μL. […]
(§9) To determine the ability of compounds to downregulate EBV driven gene expression, HG-3 cells were treated with selected compounds and percentage inhibition of EBV target genes was determined by quantitative PCR. […]

RUNX3 = experiment: EBV target gene downregulation (qPCR) in HG-3 cells: RUNX3; format: cell-based; settings: Homo sapiens, mRNA by qPCR, Table 2
Description: as §4, §5, §6, §7, §8, §9

EBNA2 [2] = experiment: EBV target gene downregulation (qPCR) in HG-3 cells: EBNA2; format: cell-based; settings: Homo sapiens, mRNA by qPCR
Description: as §4, §5, §6, §7
(§10) In second protocol, reverse transcription was performed using PrimeScript RT Master Mix (Takara). RNA concentration was measured using NanoDrop®ND-1000 spectrophotometer (Witec AG) and 1 μg of total RNA was mixed with 4 μL 5X PrimeScript RT Master Mix in a total reaction volume of 20 μL. The reaction mix was incubated at 37° C. for 15 minutes followed by heat inactivation at 85° C. for 5 seconds.
(§11) QRT-PCR was carried out using 7900 HT Fast Real-Time PCR system (Applied Biosystems) or QuantStudio 3 system (ThermoFisher). Briefly, 12.5 ng of template cDNA was used with a primer concentration of 0.5 μM each and lx SYBR Green dye in a final volume of 10 μL in a 96 well or 384 well plate format.
(§12) To determine the ability of compounds to downregulate EBV driven gene expression, HG-3 cells were treated with selected compounds and percentage inhibition of EBV target genes was determined by quantitative PCR. […] To further determine the anti-oncoviral specificity of compounds, these compounds were tested for their ability to downregulate a NOTCH target gene HES1 in a NOTCH1 positive (EBV negative) human leukemic cell line RPMI8402.
(§13) Upon infection of human cells, EBV is known to induce cancerous transformation of cells via upregulation of host as well as viral genes (e.g LMP1, EBNA2, BATF1, BMI1 and CD21). To determine the ability of compounds to downregulate EBV driven gene expression, HG-3 and LCL070903 cells were treated with selected compounds and percentage inhibition of EBV target genes was determined by quantitative PCR. As shown in Table 5 and Table 6, compounds down regulate EBV target genes such as BMI1 in HG-3 and LCL070903 cells, respectively (FIGS. 3 and 4).

NOTCH target gene HES1 = NOTCH target gene HES1 downregulation in RPMI 8402 cells; format: cell-based, human; set-up: Percentage inhibition of NOTCH target gene HES1: concentration or dose not given beside the values; settings: RPMI 8402 cells (NOTCH1 positive, EBV negative)
Description: as §5, §6, §11, §12

[3] = tested on: EBV positive human B HG-3 cells; experiment: PrestoBlue proliferation assay in HG-3 cells; format: cell-based; settings: 72 hours; for anti-proliferative effect on HG-3 cells (in words): PrestoBlue, FIG. 2 and Table 4; for IC50: Homo sapiens, concentration range 0.03-100 μM, PrestoBlue assay, read-out: Anti-proliferative IC50 values (μM) in HG-3 cells
Description: as §1, §2, §3
In brief, HG-3 cells were plated in a 96 well plate and treated with an increasing concentration of compounds.

BMI1 (EBV target gene) [4] = experiment: EBV target gene downregulation (qPCR) in HG-3 cells: BMI1; format: cell-based, human; settings: 48 hours; for potency in downregulating EBV pathway (BMI1) compared with 6-(4-tert-butylphenoxy)pyridin-3-amine (in words): 10 μM, qRT-PCR, FIG. 4; for inhibition at 10 µM: Homo sapiens, mRNA by qPCR, Table 5
Description: EBV positive human B HG-3 cells were treated with 10 μM of the mentioned compounds for 48 hours. Following treatment, total RNA was extracted and mRNA expression analysed by qRT-PCR.
as §4, §5, §6, §7, §10, §11, §13

EBNA2 [5] = experiment: EBV target gene downregulation (qPCR) in LCL070903 cells: EBNA2; format: cell-based; settings: Homo sapiens, mRNA by qPCR, Table 6
Description: as §4, §5, §6, §7, §10, §11, §13

BMI1 (EBV target gene) [6] = experiment: EBV target gene downregulation (qPCR) in LCL070903 cells: BMI1; format: cell-based, human; settings: 48 hours; for potency in downregulating EBV pathway (BMI1) compared with 6-(4-tert-butylphenoxy)pyridin-3-amine (in words): 10 μM, qRT-PCR, FIG. 3; for inhibition at 10 µM: Homo sapiens, mRNA by qPCR, Table 6
Description: EBV positive human B LCL070903 cells were treated with 10 μM of the mentioned compounds for 48 hours. Following treatment, total RNA was extracted and mRNA expression analysed by qRT-PCR.
as §4, §5, §6, §7, §10, §11, §13

CD21 [7] = experiment: EBV target gene downregulation (qPCR) in LCL070903 cells: CD21; format: cell-based; settings: Homo sapiens, mRNA by qPCR, Table 6
Description: as §4
as §5, with “A RNA pellet was obtained by centrifuging the samples at 4° C. for 10 minutes. RNA pellet obtained was washed with 1 ml ice cold 75% ethanol and spun down at 14000 rpm at 4° C. RNA pellet was dried off of excess of ethanol and resuspended in 40 IA DPEC water.” left out
(§14) In first protocol, SuperScript™ RT (Invitrogen) was used for reverse transcription reaction. RNA concentration was measured using NanoDrop®ND-1000 spectrophotometer (Witec AG) and 500 ng of total RNA was mixed with a 10 mM mix of dNTPs and 100 ng of random primers. […]
as §8
as §13, with “As shown in Table 5 and Table 6, compounds down regulate EBV target genes such as BMI1 in HG-3 and LCL070903 cells, respectively (FIGS. 3 and 4).” left out

CD21 [8] = experiment: EBV target gene downregulation (qPCR) in HG-3 cells: CD21; format: cell-based; settings: Homo sapiens, mRNA by qPCR, Table 5
Description: as §4
Total RNA was extracted from cells using TRIzol® extraction kit (Invitrogen). Briefly, 1×10^6 cells were washed with ice-cold 1× PBS and lysed in 1 ml of TRIzol® solution for 5 minutes at room temperature to dissociate nucleoprotein complexes. Lysed cells were then treated with 200 μl of chloroform and shaked vigorously for 15-30 seconds and incubated at room temperature for 2-3 minutes. […]
as §14, §8

Row | Structure (SMILES) | anti-proliferative effect on HG-3 cells (in words) [1] | IC50 [1] | inhibition at 10 µM (LMP1) | inhibition at 10 µM (RUNX3) | inhibition at 10 µM (EBNA2 [2]; Table 2) | Percentage inhibition of NOTCH target gene HES1 (NOTCH target gene HES1) | downregulation of NOTCH target gene HES1 (in words) (NOTCH target gene HES1) | anti-proliferative effect on HG-3 cells (in words) [3] | IC50 [3] | inhibition at 10 µM (EBNA2 [2]; Table 5) | potency in downregulating EBV pathway (BMI1) compared with 6-(4-tert-butylphenoxy)pyridin-3-amine (in words) (BMI1 (EBV target gene) [4]) | inhibition at 10 µM (BMI1 (EBV target gene) [4]) | inhibition at 10 µM (EBNA2 [5]) | potency in downregulating EBV pathway (BMI1) compared with 6-(4-tert-butylphenoxy)pyridin-3-amine (in words) (BMI1 (EBV target gene) [6]) | inhibition at 10 µM (BMI1 (EBV target gene) [6]) | inhibition at 10 µM (CD21 [7]) | inhibition at 10 µM (CD21 [8])
1 | CC(C)(C)c1ccc(Oc2ccc(NCc3ccccn3)cn2)cc1 [Example 3, 6-(4-(tert-Butyl)phenoxy)-N-(pyridin-2-ylmethyl)pyridin-3-amine] | demonstrate anti-proliferative effect | 5.4 µM | 37% | 55% | 16% | 0% | do not modulate expression of this gene | – | – | – | – | – | – | – | – | – | –
2 | Fc1cc(NCc2cccnc2)ccc1Oc1ccc(C2CCCCC2)cc1 [Example 19, 4-(4-Cyclohexylphenoxy)-3-fluoro-N-(pyridin-3-ylmethyl)aniline] | – | – | – | – | – | – | – | demonstrate anti-proliferative effect | 3.5 µM | 36% | enhanced potency | 19% | 19% | enhanced potency | 56% | – | –
3 | CC(C)(C)c1ccc(Oc2ccc(NCc3c[nH]cn3)cn2)cc1 [Example 10, N-((1H-Imidazol-4-yl)methyl)-6-(4-(tert-butyl)phenoxy)pyridin-3-amine] | demonstrate anti-proliferative effect | 6.6 µM | 15% | 37% | – | 0% | do not modulate expression of this gene | – | – | – | – | – | – | – | – | – | –
4 | c1cncc(CNc2ccc(Oc3ccc(-c4cncs4)cc3)nc2)c1 [Example 27, N-(pyridin-3-ylmethyl)-6-(4-(thiazol-5-yl)phenoxy)pyridin-3-amine] | – | – | – | – | – | – | – | demonstrate anti-proliferative effect | 1.9 µM | – | enhanced potency | – | – | enhanced potency | 66% | 22% | –
5 | OC(c1ccc(NCc2cccnc2)cc1)c1ccc(-c2ccc(F)cc2)cc1 (stereo not shown) [Example 30, (4′-Fluoro-[1,1′-biphenyl]-4-yl)(4-((pyridin-3-ylmethyl)amino)phenyl)methanol] | – | – | – | – | – | – | – | – | – | – | enhanced potency | 31% | – | enhanced potency | 54% | – | 10%
6 | Cc1nc(Oc2ccc(-c3ccccc3)cc2)ccc1NCc1cccnc1 [Example 23, 6-([1,1′-Biphenyl]-4-yloxy)-2-methyl-N-(pyridin-3-ylmethyl)pyridin-3-amine] | – | – | – | – | – | – | – | demonstrate anti-proliferative effect | 1.9 µM | 1% | enhanced potency | 35% | 1% | enhanced potency | 39% | – | –
7 | Cc1ccccc1-c1ccc(Oc2ccc(NCc3cccnc3)cn2)cc1C [Example 29, 6-((2,2′-dimethyl-[1,1′-biphenyl]-4-yl)oxy)-N-(pyridin-3-ylmethyl)pyridin-3-amine] | – | – | – | – | – | – | – | demonstrate anti-proliferative effect | 2 µM | 6% | enhanced potency | 28% | 30% | enhanced potency | 72% | – | –
8 | CC(C)(C)c1ccc(Oc2ccc(NCc3ccncc3)cn2)cc1 [Example 1, 6-(4-(tert-Butyl)phenoxy)-N-(pyridin-4-ylmethyl)pyridin-3-amine] | demonstrate anti-proliferative effect | 4 µM | 30% | 27% | – | 0% | do not modulate expression of this gene | – | – | – | – | – | – | – | – | – | –
9 | CC(C)(C)c1ccc(Oc2ccc(NCc3cnc(N)nc3)cn2)cc1 [Example 5, 5-(((6-(4-(tert-Butyl)phenoxy)pyridin-3-yl)amino)methyl)pyrimidin-2-amine] | demonstrate anti-proliferative effect | 4.8 µM | 22% | 57% | 46% | 0% | do not modulate expression of this gene | – | – | – | – | – | – | – | – | – | –
